Data as given in US8357717B2, “Spiro group-containing amide compounds having bradykinin 1 receptor (B1R) activity” (Gruenenthal GmbH, priority 2009, dated 2013).

What follows are compounds tested against T1, human B1R receptor (hB1R) (Homo sapiens, UniProt P46663) (assay: FLIPR Ca2+ functional study on bradykinin receptor 1, hB1R cells (CHO K1)). Conditions: CHO-K1, 10 μM test substance; CHO K1 cells with human B1R; agonist Lys-Des-Arg9-bradykinin at EC80; read-out: B1R antagonism, human [10 μM] % inhibition.
T1 construct: expressed in transfected cells; host or cells: CHO K1 cells, stably transfected
T1 sequence (P46663 1-353): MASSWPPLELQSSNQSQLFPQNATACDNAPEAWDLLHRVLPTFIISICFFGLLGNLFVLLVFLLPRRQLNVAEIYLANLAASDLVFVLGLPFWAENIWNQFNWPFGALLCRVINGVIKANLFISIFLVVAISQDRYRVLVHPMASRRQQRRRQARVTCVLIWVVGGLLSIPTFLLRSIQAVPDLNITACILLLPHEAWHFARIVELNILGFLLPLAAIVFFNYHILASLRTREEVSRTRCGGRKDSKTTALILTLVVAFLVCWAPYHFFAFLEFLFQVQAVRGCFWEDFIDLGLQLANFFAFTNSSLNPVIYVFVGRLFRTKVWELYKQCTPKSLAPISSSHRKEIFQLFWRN
Assay type: cell-based
Description: (§1) The agonistic or antagonistic activity of substances can be quantified on the bradykinin receptor 1 (B1R) of the species human and rat using ectopically expressing cell lines (CHO K1 cells) and with the aid of a Ca^2+-sensitive dye (Fluo-4) using a fluorescent imaging plate reader (FLIPR). The indication in % activation is based on the Ca^2+ signal after addition of Lys-Des-Arg^9-bradykinin (0.5 nM) or Des-Arg^9-bradykinin (100 nM). Antagonists lead to suppression of the Ca^2+ influx after the addition of the agonist. % Inhibition compared with the maximum achievable inhibition is indicated.
(§2) The agonistic or antagonistic activity of substances can be determined on the bradykinin receptor 1 (B1R) of the species human and rat using the following assay. According to this assay, the Ca^2+ influx through the channel is quantified with the aid of a Ca^2+-sensitive dye (Fluo-4 type, Molecular Probes Europe BV, Leiden, Netherlands) using a Fluorescent Imaging Plate Reader (FLIPR, Molecular Devices, Sunnyvale, USA).
(§3) Chinese hamster ovary cells (CHO K1 cells) which have been stably transfected with the human B1R gene (hB1R cells) or with the B1R gene of the rat (rB1R cells) are used. For functional studies, the cells are plated out on black 96-well plates having a clear base (BD Biosciences, Heidelberg, Germany or Greiner, Frickenhausen, Germany) in a density of 20,000-35,000 cells/well. The cells are left overnight at 37° C. and with 5% CO2 in culture medium (hB1R cells: Nutrient Mixture Ham's F12, Gibco Invitrogen GmbH, Karlsruhe, Germany or DMEM, Sigma-Aldrich, Taufkirchen, Germany; rB1R cells: D-MEM/F12, Gibco Invitrogen GmbH, Karlsruhe, Germany), with 10 vol. % FBS (fetal bovine serum, Gibco Invitrogen GmbH, Karlsruhe, Germany or PAN Biotech GmbH, Aidenbach, Germany). On the following day, the cells are loaded for 60 minutes at 37° C. with 2.13 μM Fluo-4 (Molecular Probes Europe BV, Leiden, Netherlands) in HBSS buffer (Hank's buffered saline solution, Gibco Invitrogen GmbH, Karlsruhe, Germany) […] (Sigma-Aldrich, Taufkirchen, Germany) and 10 mM HEPES (Sigma-Aldrich, Taufkirchen, Germany). The plates are then washed twice with HBSS buffer, and HBSS buffer additionally containing 0.1% BSA (bovine serum albumin; Sigma-Aldrich, Taufkirchen, Germany), 5.6 mM glucose and 0.05% gelatin (Merck KGaA, Darmstadt, Germany) is added to the plates. After incubation for a further 20 minutes at room temperature, the plates are inserted into the FLIPR for Ca^2+ measurement. Alternatively, washing is carried out with buffer A (15 mM HEPES, 80 mM NaCl, 5 mM KCl, 1.2 mM CaCl2, 0.7 mM MgSO4, 2 g/l glucose, 2.5 mM probenecid) followed by loading with buffer A with added 2.5 μM Fluo-4 and 0.025% Pluronic F127 (Sigma-Aldrich, Taufkirchen, Germany). The cells are then washed twice with buffer A and incubated for 30 minutes at room temperature with buffer A additionally containing 0.05% BSA and 0.05% gelatin and are then inserted into the FLIPR for Ca^2+ measurement. The Ca^2+-dependent fluorescence is measured before and after the addition of substances (λex=488 nm, λem=540 nm). Quantification is carried out by measuring the highest fluorescence intensity (FC, fluorescence counts) over time.
(§4) The FLIPR protocol consists of two substance additions. Test substances (10 μM) are first pipetted onto the cells and the Ca^2+ influx is compared with the control (hB1R: Lys-Des-Arg^9-bradykinin >=50 nM; rB1R: Des-Arg^9-bradykinin 10 μM). This gives the activation in %, based on the Ca^2+ signal after addition of Lys-Des-Arg^9-bradykinin (>=50 nM) or Des-Arg^9-bradykinin (10 μM). After 10-20 minutes' incubation, Lys-Des-Arg^9-bradykinin (hB1R) or Des-Arg^9-bradykinin (rB1R) is applied in the concentration of the EC80, and the influx of Ca^2+ is likewise determined. Antagonists lead to suppression of the Ca^2+ influx. The % inhibition compared with the maximum achievable inhibition is calculated. […]

inhibition at 10 µM | SMILES
97% | COc1cc(C)c(S(=O)(=O)N2CCc3ccc(C(=O)N4CCC5(CC4)CCN(c4ccncc4)CC5)cc3C2)c(C)c1 [Compound G-04, (2-(4-Methoxy-2,6-dimethylphenylsulfonyl)-1,2,3,4-tetrahydroisoquinolin-7-yl)(9-(pyridin-4-yl)-3,9-diazaspiro[5.5]undecan-3-yl)methanone]
96% | COc1cc(C)c(S(=O)(=O)N2CCCc3ccc(CC(=O)N4CCC5(CC4)CCN(c4ccncc4)C5)cc32)c(C)c1 [Compound G-09, 2-(1-(4-Methoxy-2,6-dimethylphenylsulfonyl)-1,2,3,4-tetrahydroquinolin-7-yl)-1-(2-(pyridin-4-yl)-2,8-diazaspiro[4.5]decan-8-yl)ethanone]

Each compound was assayed against T2, B1R receptor of the rat (rB1R) (Rattus norvegicus, UniProt P97583) (assay: FLIPR Ca2+ functional study on bradykinin receptor 1, rB1R cells (CHO K1)). Conditions: 10 μM test substance; CHO K1 cells with rat B1R; agonist Des-Arg9-bradykinin at EC80; read-out: B1R antagonism, rat [10 μM] % inhibition.
T2 construct: expressed in transfected cells; host or cells: CHO K1 cells, stably transfected
T2 sequence (P97583 1-337): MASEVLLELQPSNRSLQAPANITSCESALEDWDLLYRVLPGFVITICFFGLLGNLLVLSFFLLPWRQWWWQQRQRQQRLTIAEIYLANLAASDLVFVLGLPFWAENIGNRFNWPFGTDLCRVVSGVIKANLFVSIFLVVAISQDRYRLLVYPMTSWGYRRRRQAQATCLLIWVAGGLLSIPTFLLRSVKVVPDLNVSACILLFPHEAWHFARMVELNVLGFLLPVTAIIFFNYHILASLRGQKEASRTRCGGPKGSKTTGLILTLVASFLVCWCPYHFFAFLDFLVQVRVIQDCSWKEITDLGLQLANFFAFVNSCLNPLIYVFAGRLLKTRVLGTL
Assay type: cell-based
Description: as §1, §2, §3, §4

SMILES | inhibition at 10 µM
COc1cc(C)c(S(=O)(=O)N2CCc3ccc(C(=O)N4CCC5(CC4)CCN(c4ccncc4)CC5)cc3C2)c(C)c1 [Compound G-04, (2-(4-Methoxy-2,6-dimethylphenylsulfonyl)-1,2,3,4-tetrahydroisoquinolin-7-yl)(9-(pyridin-4-yl)-3,9-diazaspiro[5.5]undecan-3-yl)methanone] | 99%
COc1cc(C)c(S(=O)(=O)N2CCc3ccc(C(=O)N4CCC5(CCN(Cc6ccccc6)C5)C4)cc32)c(C)c1 (stereo not shown) [G_CC-007, (7-Benzyl-2,7-diazaspiro[4.4]nonan-2-yl)(1-(4-methoxy-2,6-dimethylphenylsulfonyl)indoline-6-yl)methanone] | 59%
COc1cc(C)c(S(=O)(=O)N2CCc3ccc(C(=O)N4CCC5(CC4)CCN(c4ccncc4)CC5)cc32)c(C)c1 [G_CC-008, (1-(4-Methoxy-2,6-dimethylphenylsulfonyl)indolin-6-yl)(9-(pyridin-4-yl)-3,9-diazaspiro[5.5]undecan-3-yl)methanone] | 100%
O=C(c1ccc2c(c1)N(C(=O)c1ccccc1Cl)CC2)N1CCC2(CC1)CCN(c1ccncc1)CC2 [G_CC-009, (1-(2-Chlorobenzoyl)indolin-6-yl)(9-(pyridin-4-yl)-3,9-diazaspiro[5.5]undecan-3-yl)methanone] | 78%
O=C(c1ccc2c(c1)CN(C(=O)c1ccccc1Cl)C2)N1CCC2(CC1)CCN(Cc1ccc(F)cc1)C2=O [G_CC-018, 8-(2-(2-Chlorobenzoyl)isoindoline-5-carbonyl)-2-(4-fluorobenzyl)-2,8-diazaspiro[4.5]decan-1-one] | 51%
COc1cc(C)c(S(=O)(=O)N2CCCc3ccc(C(=O)N4CCC5(CCN(Cc6ccccc6)C5)C4)cc32)c(C)c1 (stereo not shown) [G_CC-027, (7-Benzyl-2,7-diazaspiro[4.4]nonan-2-yl)(1-(4-methoxy-2,6-dimethylphenylsulfonyl)-1,2,3,4-tetrahydroquinolin-7-yl)methanone] | 58%
COc1cc(C)c(S(=O)(=O)N2CCc3ccc(C(=O)N4CCC5(CC4)CCN(Cc4ccccc4)C5=O)cc3C2)c(C)c1 [G_CC-040, 2-Benzyl-8-(2-(4-methoxy-2,6-dimethylphenylsulfonyl)-1,2,3,4-tetrahydroisoquinoline-7-carbonyl)-2,8-diazaspiro[4.5]decan-1-one] | 70%
COc1cc(C)c(S(=O)(=O)N2CCc3ccc(C(=O)N4CCC5(CC4)C(=O)NCN5c4ccccc4)cc3C2)c(C)c1 [G_CC-043, 8-(2-(4-Methoxy-2,6-dimethylphenylsulfonyl)-1,2,3,4-tetrahydroisoquinoline-7-carbonyl)-1-phenyl-1,3,8-triazaspiro[4.5]decan-4-one] | 74%
COc1cc(C)c(S(=O)(=O)N2CCCc3ccc(CC(=O)N4CCC5(CC4)CCN(Cc4ccccc4)C5=O)cc32)c(C)c1 [G_CC-053, 2-Benzyl-8-(2-(1-(4-methoxy-2,6-dimethylphenylsulfonyl)-1,2,3,4-tetrahydroquinolin-7-yl)acetyl)-2,8-diazaspiro[4.5]decan-1-one] | 84%

More lines, now with the values ahead:

inhibition at 10 µM | SMILES
96% | COc1cc(C)c(S(=O)(=O)N2CCCc3ccc(CC(=O)N4CCC5(CC4)CCN(c4ccncc4)C5)cc32)c(C)c1 [Compound G-09, 2-(1-(4-Methoxy-2,6-dimethylphenylsulfonyl)-1,2,3,4-tetrahydroquinolin-7-yl)-1-(2-(pyridin-4-yl)-2,8-diazaspiro[4.5]decan-8-yl)ethanone]
71% | COc1cc(C)c(S(=O)(=O)N2CCc3ccc(C(=O)N4CCC5(CC4)CCN(Cc4ccc(F)cc4)C5=O)cc32)c(C)c1 [G_CC-006, 2-(4-Fluorobenzyl)-8-(1-(4-methoxy-2,6-dimethylphenylsulfonyl)indoline-6-carbonyl)-2,8-diazaspiro[4.5]decan-1-one]
51% | COc1cc(C)c(S(=O)(=O)N2CCCc3ccc(C(=O)N4CCC5(CC4)C(=O)N(C)CC5c4ccc(F)cc4)cc32)c(C)c1 (stereo not shown) [G_CC-025, 4-(4-Fluorophenyl)-8-(1-(4-methoxy-2,6-dimethylphenylsulfonyl)-1,2,3,4-tetrahydroquinoline-7-carbonyl)-2-methyl-2,8-diazaspiro[4.5]decan-1-one]
58% | COc1cc(C)c(S(=O)(=O)N2CCCc3ccc(C(=O)N4CCC5(CC4)CCN(Cc4ccccc4)C5=O)cc32)c(C)c1 [G_CC-026, 2-Benzyl-8-(1-(4-methoxy-2,6-dimethylphenylsulfonyl)-1,2,3,4-tetrahydroquinoline-7-carbonyl)-2,8-diazaspiro[4.5]decan-1-one]
71% | COc1cc(C)c(S(=O)(=O)N2CCc3ccc(C(=O)N4CCC5(CC4)CCN(Cc4ccc(F)cc4)C5=O)cc3C2)c(C)c1 [G_CC-039, 2-(4-Fluorobenzyl)-8-(2-(4-methoxy-2,6-dimethylphenylsulfonyl)-1,2,3,4-tetrahydroisoquinoline-7-carbonyl)-2,8-diazaspiro[4.5]decan-1-one]
64% | COc1cc(C)c(S(=O)(=O)N2CCc3ccc(C(=O)N4CCC5(CCN(Cc6ccccc6)C5)C4)cc3C2)c(C)c1 (stereo not shown) [G_CC-041, (7-Benzyl-2,7-diazaspiro[4.4]nonan-2-yl)(2-(4-methoxy-2,6-dimethylphenylsulfonyl)-1,2,3,4-tetrahydroisoquinolin-7-yl)methanone]
92% | O=C(c1ccc2c(c1)CN(C(=O)c1ccccc1Cl)CC2)N1CCC2(CC1)CCN(c1ccncc1)CC2 [G_CC-045, (2-(2-Chlorobenzoyl)-1,2,3,4-tetrahydroisoquinolin-7-yl)(9-(pyridin-4-yl)-3,9-diazaspiro[5.5]undecan-3-yl)methanone]
71% | COc1cc(C)c(S(=O)(=O)N2CCCc3ccc(CC(=O)N4CCC5(CCN(Cc6ccccc6)C5)C4)cc32)c(C)c1 (stereo not shown) [G_CC-054, 1-(7-Benzyl-2,7-diazaspiro[4.4]nonan-2-yl)-2-(1-(4-methoxy-2,6-dimethylphenylsulfonyl)-1,2,3,4-tetrahydroquinolin-7-yl)ethanone]
